From ChEMBL document CHEMBL5137042, “Tetrahydropyridin-4-ylpicolinoylglycines as novel and orally active prolyl hydroxylase 2 (PHD2) inhibitors for the treatment of renal anemia” (Eur J Med Chem, 2022)
Active and inactive are the calls of the source. No cut-off for these calls is given here.

Assays:
[1] = molecular target: Egl nine homolog 1 (Homo sapiens, UniProt Q9GZT9); test: Inhibition of PHD2 (181 to 426 residue) (unknown origin) measured by fluorescence polarization assay
[2] = Cytotoxicity against human Hep3B cells assessed as cell viability at 100 uM incubated for 24 hrs by CCK8 assay relative to control; format: toxicity, cell-based, Hep 3B2; details: read-out: Activity
[3] = test system: Mus musculus; test: Induction of reticulocytes production in C57BL/6 mouse at 20 mg/kg, po measured at day 3 and 3 days post-dose; format: functional, organism-based; details: time 3.0 day
[4] = test system: Mus musculus; test: Induction of reticulocytes production in po dosed C57BL/6 mouse measured at day 3 and 3 days post-dose; format: functional, organism-based; details: dose 10-50 mg/kg, time 3.0 day, DDE = dose-dependent effect
[5] = Toxicity in ICR mouse assessed as increase in body weight at 15 to 100 mg/kg, po administered every other day and measured upto 14 days; format: organism-based; details: in vivo, 336 h, dose 15-100 mg/kg, time < 14 day
[6] = Toxicity in male ICR mouse assessed as change in lung to body weight ratio at 15 to 100 mg/kg, po administered every other day and measured after 14 days; format: organism-based; details: in vivo, 336 h, dose 15-100 mg/kg, time 14 day
[7] = Toxicity in male ICR mouse assessed as change in heart to body weight ratio at 15 to 100 mg/kg, po administered every other day and measured after 14 days; format: organism-based; details: in vivo, 336 h, dose 15-100 mg/kg, time 14 day
[8] = Toxicity in male ICR mouse assessed as change in liver to body weight ratio at 15 to 100 mg/kg, po administered every other day and measured after 14 days; format: organism-based; details: in vivo, 336 h, dose 15-100 mg/kg, time 14 day
[9] = Toxicity in male ICR mouse assessed as change in kidney to body weight ratio at 15 to 100 mg/kg, po administered every other day and measured after 14 days; format: organism-based; details: in vivo, 336 h, dose 15-100 mg/kg, time 14 day
[10] = Toxicity in male ICR mouse assessed as change in spleen to body weight ratio at 15 to 100 mg/kg, po administered every other day and measured after 14 days; format: organism-based; details: in vivo, 336 h, dose 15-100 mg/kg, time 14 day
[11] = Toxicity in female ICR mouse assessed as change in lung to body weight ratio at 15 to 100 mg/kg, po administered every other day and measured after 14 days; format: organism-based; details: in vivo, 336 h, dose 15-100 mg/kg, time 14 day
[12] = Toxicity in female ICR mouse assessed as change in heart to body weight ratio at 15 to 100 mg/kg, po administered every other day and measured after 14 days; format: organism-based; details: in vivo, 336 h, dose 15-100 mg/kg, time 14 day
[13] = Toxicity in female ICR mouse assessed as change in liver to body weight ratio at 15 to 100 mg/kg, po administered every other day and measured after 14 days; format: organism-based; details: in vivo, 336 h, dose 15-100 mg/kg, time 14 day
[14] = Toxicity in female ICR mouse assessed as change in kidney to body weight ratio at 15 to 100 mg/kg, po administered every other day and measured after 14 days; format: organism-based; details: in vivo, 336 h, dose 15-100 mg/kg, time 14 day
[15] = Toxicity in female ICR mouse assessed as change in spleen to body weight ratio at 15 to 100 mg/kg, po administered every other day and measured after 14 days; format: organism-based; details: in vivo, 336 h, dose 15-100 mg/kg, time 14 day
[16] = Renal toxicity in ICR mouse assessed as effect on BUN level at 15 to 100 mg/kg, po administered every other day and measured after 14 days; format: organism-based; details: in vivo, 336 h, dose 15-100 mg/kg, time 14 day
[17] = Renal toxicity in ICR mouse assessed as effect on […] level at 15 to 100 mg/kg, po administered every other day and measured after 14 days; format: organism-based; details: in vivo, 336 h, dose 15-100 mg/kg, time 14 day
[18] = Hepatotoxicity in ICR mouse assessed as effect on […] level at 15 to 100 mg/kg, po administered every other day and measured after 14 days; format: toxicity, organism-based; details: in vivo, 336 h, dose 15-100 mg/kg, time 14 day
[19] = Hepatotoxicity in ICR mouse assessed as effect on ALT level at 15 to 100 mg/kg, po administered every other day and measured after 14 days; format: toxicity, organism-based; details: in vivo, 336 h, dose 15-100 mg/kg, time 14 day
[20] = Toxicity in ICR mouse assessed as heart edema at 15 to 100 mg/kg, po administered every other day and measured after 14 days by H and E staining method; format: organism-based; details: in vivo, 336 h, dose 15-100 mg/kg, time 14 day
[21] = Toxicity in ICR mouse assessed as liver edema at 15 to 100 mg/kg, po administered every other day and measured after 14 days by H and E staining method; format: organism-based; details: in vivo, 336 h, dose 15-100 mg/kg, time 14 day
[22] = Toxicity in ICR mouse assessed as lung edema at 15 to 100 mg/kg, po administered every other day and measured after 14 days by H and E staining method; format: organism-based; details: in vivo, 336 h, dose 15-100 mg/kg, time 14 day
[23] = Toxicity in ICR mouse assessed as spleen edema at 15 to 100 mg/kg, po administered every other day and measured after 14 days by H and E staining method; format: organism-based; details: in vivo, 336 h, dose 15-100 mg/kg, time 14 day
[24] = Toxicity in ICR mouse assessed as kidney edema at 15 to 100 mg/kg, po administered every other day and measured after 14 days by H and E staining method; format: organism-based; details: in vivo, 336 h, dose 15-100 mg/kg, time 14 day
[25] = test system: Hep3B; test: Induction of HIF-alpha stabilization in human Hep3B cells assessed as fold increase in EPO transcriptional activity at 5 uM incubated for 12 hrs by qRT-PCR analysis; format: cell-based

Chain of Egl nine homolog 1 (Q9GZT9 whole entry): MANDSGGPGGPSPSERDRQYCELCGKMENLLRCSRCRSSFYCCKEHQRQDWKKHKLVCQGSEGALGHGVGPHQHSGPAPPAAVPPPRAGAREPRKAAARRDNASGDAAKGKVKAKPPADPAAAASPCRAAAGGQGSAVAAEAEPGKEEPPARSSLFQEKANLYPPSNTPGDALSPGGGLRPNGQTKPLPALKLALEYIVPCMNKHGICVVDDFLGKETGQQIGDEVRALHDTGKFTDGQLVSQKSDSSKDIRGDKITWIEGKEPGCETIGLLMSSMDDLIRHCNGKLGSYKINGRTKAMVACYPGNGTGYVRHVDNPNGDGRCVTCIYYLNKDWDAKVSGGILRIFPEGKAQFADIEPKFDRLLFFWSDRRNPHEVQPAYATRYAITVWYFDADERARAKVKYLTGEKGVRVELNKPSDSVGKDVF

O=C(O)CNC(=O)c1ncc(C2=CCN(S(=O)(=O)c3cccnc3)CC2)cc1O
IC50 [1]: 51.2 nM

Cc1ccc(S(=O)(=O)N2CC=C(c3cnc(C(=O)NCC(=O)O)c(O)c3)CC2)cc1
IC50 [1]: 45.3 nM

O=C(O)CNC(=O)c1ncc(C2=CCN(S(=O)(=O)Cc3ccc(OC(F)(F)F)cc3)CC2)cc1O
IC50 [1]: 6.55 nM
viability at 24 h, 100 µM [2]: > 80%
Activity [3]: Active
Activity [4]: Dde
Activity [5]: Non-Toxic
Activity [6]: Non-Toxic
Activity [7]: Non-Toxic
Activity [8]: Non-Toxic
Activity [9]: Non-Toxic
Activity [10]: Non-Toxic
Activity [11]: Non-Toxic
Activity [12]: Non-Toxic
Activity [13]: Non-Toxic
Activity [14]: Non-Toxic
Activity [15]: Non-Toxic
Activity [16]: Non-Toxic
Activity [17]: Non-Toxic
Activity [18]: Non-Toxic
Activity [19]: Non-Toxic
Activity [20]: Non-Toxic
Activity [21]: Non-Toxic
Activity [22]: Non-Toxic
Activity [23]: Non-Toxic
Activity [24]: Non-Toxic

O=C(O)CNC(=O)c1ncc(C2=CCN(S(=O)(=O)c3ccc(OC(F)(F)F)cc3)CC2)cc1O
IC50 [1]: 50.9 nM

O=C(O)CNC(=O)c1ncc(C2=CCN(S(=O)(=O)c3ccc(C(F)(F)F)cc3)CC2)cc1O
IC50 [1]: 72.3 nM

O=C(O)CNC(=O)c1ncc(C2=CCN(C(=O)Nc3ccc(Cl)cc3)CC2)cc1O
IC50 [1]: 27 nM

O=C(O)CNC(=O)c1ncc(C2=CCN(S(=O)(=O)c3ccccc3)CC2)cc1O
IC50 [1]: 132 nM

O=C(O)CNC(=O)c1ncc(C2=CCN(S(=O)(=O)c3ccc(F)cc3)CC2)cc1O
IC50 [1]: 43.5 nM

O=C(O)CNC(=O)c1ncc(C2=CCN(S(=O)(=O)c3cccc4ccccc34)CC2)cc1O
IC50 [1]: 22.4 nM

CC(C)(C)c1ccc(S(=O)(=O)N2CC=C(c3cnc(C(=O)NCC(=O)O)c(O)c3)CC2)cc1
IC50 [1]: 796 nM

O=C(O)CNC(=O)c1ncc(C2=CCN(S(=O)(=O)Cc3ccccc3)CC2)cc1O
IC50 [1]: 18.2 nM

O=C(O)CNC(=O)c1ncc(C2=CCN(S(=O)(=O)c3ccc(Cl)cc3)CC2)cc1O
IC50 [1]: 27 nM

O=C(O)CNC(=O)c1ncc(C2=CCN(S(=O)(=O)Cc3ccc(Br)cc3)CC2)cc1O
IC50 [1]: 6.95 nM
viability at 24 h, 100 µM [2]: > 80%
FC [25]: 2
Activity [3]: Active

O=C(O)CNC(=O)c1ncc(C2=CCN(S(=O)(=O)c3cccc(F)c3)CC2)cc1O
IC50 [1]: 141 nM

O=C(O)CNC(=O)c1ncc(C2CCN(Cc3ccc(Cl)cc3)CC2)cc1O
IC50 [1]: 588 nM

O=C(O)CNC(=O)c1ncc(C2=CCN(S(=O)(=O)Cc3ccc(F)cc3)CC2)cc1O
IC50 [1]: 6.31 nM
viability at 24 h, 100 µM [2]: > 80%
Activity [3]: Active

N#Cc1ccc(S(=O)(=O)N2CC=C(c3cnc(C(=O)NCC(=O)O)c(O)c3)CC2)cc1
IC50 [1]: 20.7 nM

O=C(O)CNC(=O)c1ncc(C2=CCN(S(=O)(=O)c3ccc4ccccc4c3)CC2)cc1O
IC50 [1]: 97.4 nM

O=C(O)CNC(=O)c1ncc(C2=CCN(Cc3ccc(Cl)cc3)CC2)cc1O
IC50 [1]: 73.9 nM

O=C(O)CNC(=O)c1ncc(C2=CCN(S(=O)(=O)Cc3ccc(Cl)cc3)CC2)cc1O
IC50 [1]: 6.14 nM
viability at 24 h, 100 µM [2]: > 80%
Activity [3]: Active

O=C(O)CNC(=O)c1ncc(C2=CCN(C(=O)c3ccc(Cl)cc3)CC2)cc1O
IC50 [1]: 25 nM

O=C(O)CNC(=O)c1ncc(C2=CCN(S(=O)(=O)Cc3ccc(C(F)(F)F)cc3)CC2)cc1O
IC50 [1]: 7.97 nM
viability at 24 h, 100 µM [2]: > 80%
Activity [3]: Active

O=C(O)CNC(=O)c1ncc(C2=CCN(S(=O)(=O)c3ccc(Br)cc3)CC2)cc1O
IC50 [1]: 29.7 nM

O=C(O)CNC(=O)c1ncc(C2=CCN(S(=O)(=O)c3ccccc3F)CC2)cc1O
IC50 [1]: 82.8 nM

O=C(O)CNC(=O)c1ncc(C2=CCN(S(=O)(=O)c3cccs3)CC2)cc1O
IC50 [1]: 46.5 nM
